According to PubChem BioAssay AID1918955 (Molecular Pharmacology Branch, DTP, NCI, 2023):
pIC50: −log10 of the molar value.

Test system: NCI/ADR-RES complex spheroid viability
Assay: Anticancer human tumor NCI/ADR-RES cell line growth inhibition;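 further: spheroids exposed to compounds for 7 days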;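 on viability, T/C: 100% = DMSO vehicle treated spheroids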
Details: for pIC50: curve of first compound; for viability, T/C: stronger effect = lower value
Text: Multicellular complex tumor spheroid response to LSD1 Inhibitor Iadademstat in combination with a variety of drugs and investigational agents in selected tumor cell lines
The current study was undertaken to assess response to LSD1 inhibitors in combination with standard-of-care drugs and investigational agents in solid tumor complex spheroid models as well as in the K-562 leukemia. Complex spheroids include a stromal component modeled by human endothelial cells (HUVEC) and fibroblasts modeled by human mesenchymal stem cells (MSCs). The concentration ranges selected for each drug and investigational agent were based upon clinically achievable concentrations if the clinical Cmax of the agent was known.
Compounds. The drugs and investigational agents used in this study are listed on Table 1. All of the agents used, including staurosporine (NSC755774) and gemcitabine (NSC613327), were obtained from the Developmental Therapeutics Program, NCI. FDA-approved anticancer drugs are available from the NCI at http://dtp.nci.nih.gov/branches/dscb/oncology_drugset_explanation.html. Drugs and investigational agents were >95% pure by proton nuclear magnetic resonance (NMR) and liquid chromatography/mass spectrometry (LC/MS). Stock solutions were prepared at 400x in DMSO, stored at -70 degrees C, and diluted in fresh medium prior to their use. The final concentration of DMSO in cell culture wells never exceeded 0.25% (v/v). The FDA-approved anticancer drug set is available from the Developmental Therapeutics Program at https://dtp.cancer.gov/organization/dscb/obtaining/available_plates.htm. All drugs and investigational agents were tested over a range starting from a high concentration at or near the clinical Cmax and decreasing in half-log increments. If the clinical Cmax for an agent had not been determined, the highest concentration tested was 10 microM.
Cell Lines. The patient-derived cancer cell (PDC) lines: 292921-168-R-J2-PDC, K24384-001-R-PDC, and 521955-158-R2-J5-PDC pancreatic carcinomas, 556581-035-R-J1 ovarian carcinoma, 324938-238-R-J1-PDC, 855422-203-R-J1-PDC and 883617-216-R-J1-PDC urothelial bladder carcinomas, 743489-274-T-PDC renal cell carcinoma, 138582-R-J1 Merkel cell tumor, K60290-347-R-J1 and K57222-313-R-J1-PDC glioblastomas, 653999-131-R-J2-PDC, LG0703-F948-PDC, and 349418-098-R-PDC non-small cell lung carcinomas, 885512-296-R-J2-PDC, 171881-019-R-J1-PDC breast carcinomas and 186277-243-T-J2-PDC and 233499-124-R-J2-PDC colon carcinomas were obtained from the NCI Patient-Derived Models Repository (PDMR, https://pdmr.cancer.gov). The established cell lines NCI/ADR-RES (RRID:CVCL_14520 and OVCAR-5 (RRID:CVCL_1628) ovarian carcinomas, 786-O (RRID:CVCL_1051) and A498 (RRID:CVCL_A498) renal cell carcinoma, NCI-H211 (ATCC, cat. CRL-5824; RRID:CVCL_1529), NCI-H196 (ATCC, cat. CRL-5823, RRID:CVCL_1509), SW 1271 (ATCC, cat. CRL-2177, RRID:CVCL_1716) and NCI-H1876 (ATCC, cat. CRL-5902, RRID:CVCL_1503) small cell lung carcinomas, MDA-MB-231 (RRID:CVCL_0062) and MDA-MB-468 (RRID:CVCL_0419)breast carcinomas (10-12). Pooled donor human umbilical vein endothelial cells (HUVEC, Lonza, cat. CC-2519) and human mesenchymal stem cells (hMSC, Lonza, cat. PT-2501) were purchased from Lonza (Walkersville, MD).
Cell Culture. All cells were maintained in an incubator at 37 degrees C and 5% CO2 with 95% humidity. The PDC lines were cultured according to standard operating procedures established by the NCI PDMR (https://pdmr.cancer.gov). Briefly all PDCs were thawed and cultured in Matrigel-coated flasks prepared with a working solution of 1X Ham's F-12 nutrient mix, without supplementation (Invitrogen, Waltham, MA, cat. 11765054), 100 U/mL penicillin-streptomycin (Invitrogen, cat. 15140122), and 2.5% Matrigel (Corning Inc., Corning, NY, cat. 354248) for the first three passages. […]

[1] = second compound 0.1 µM, first compound 0.000949 µM
[2] = second compound 0.1 µM, first compound 0.003 µM
[3] = second compound 0.1 µM, first compound 0.00949 µM
[4] = second compound 0.1 µM, first compound 0.03 µM
[5] = second compound 0.1 µM, first compound 0.0949 µM
[6] = second compound 0.1 µM, first compound 0.3 µM
[7] = second compound 0.316 µM, first compound 0.000949 µM
[8] = second compound 0.316 µM, first compound 0.003 µM
[9] = second compound 0.316 µM, first compound 0.00949 µM
[10] = second compound 0.316 µM, first compound 0.03 µM
[11] = second compound 0.316 µM, first compound 0.0949 µM
[12] = second compound 0.316 µM, first compound 0.3 µM
[13] = second compound 1 µM, first compound 0.000949 µM
[14] = second compound 1 µM, first compound 0.003 µM
[15] = second compound 1 µM, first compound 0.00949 µM
[16] = second compound 1 µM, first compound 0.03 µM
[17] = second compound 1 µM, first compound 0.0949 µM
[18] = second compound 1 µM, first compound 0.3 µM
[19] = second compound 3.16 µM, first compound 0.000949 µM
[20] = second compound 3.16 µM, first compound 0.003 µM
[21] = second compound 3.16 µM, first compound 0.00949 µM
[22] = second compound 3.16 µM, first compound 0.03 µM
[23] = second compound 3.16 µM, first compound 0.0949 µM
[24] = second compound 3.16 µM, first compound 0.3 µM
[25] = second compound 10 µM, first compound 0.000949 µM
[26] = second compound 10 µM, first compound 0.003 µM
[27] = second compound 10 µM, first compound 0.00949 µM
[28] = second compound 10 µM, first compound 0.03 µM
[29] = second compound 10 µM, first compound 0.0949 µM
[30] = second compound 10 µM, first compound 0.3 µM

SMILES | pIC50 (second compound 0.1 µM) | pIC50 (second compound 0.316 µM) | pIC50 (second compound 1 µM) | pIC50 (second compound 3.16 µM) | pIC50 (second compound 10 µM) | viability, T/C [1] [%] | viability, T/C [2] [%] | viability, T/C [3] [%] | viability, T/C [4] [%] | viability, T/C [5] [%] | viability, T/C [6] [%] | viability, T/C [7] [%] | viability, T/C [8] [%] | viability, T/C [9] [%] | viability, T/C [10] [%] | viability, T/C [11] [%] | viability, T/C [12] [%] | viability, T/C [13] [%] | viability, T/C [14] [%] | viability, T/C [15] [%] | other results
CCc1c2c(nc3ccc(O)cc13)-c1cc3c(c(=O)n1C2)COC(=O)[C@]3(O)CC + NC1CC1c1ccc(-c2cccc(O)c2)cc1 | > 9.02 | > 9.02 | > 9.02 | > 9.02 | > 9.02 | 3.8 | 1.6 | 0.64 | 0.32 | 0.23 | 0.59 | 3.44 | 1.85 | 0.73 | 0.21 | 0.3 | 0.38 | 4.73 | 3.11 | 0.96 | viability, T/C [16]: 0.37%; viability, T/C [17]: 0.24%; viability, T/C [18]: 0.51%; viability, T/C [19]: 8.34%; viability, T/C [20]: 2.9%; viability, T/C [21]: 1.29%; viability, T/C [22]: 0.29%; viability, T/C [23]: 0.18%; viability, T/C [24]: 0.31%; viability, T/C [25]: 20.9%; viability, T/C [26]: 3.67%; viability, T/C [27]: 1.58%; viability, T/C [28]: 0.59%; viability, T/C [29]: 0.26%; viability, T/C [30]: 0.3%
Nc1ccn(C2OC(CO)C(O)C2(F)F)c(=O)n1 (stereo not given) + NC1CC1c1ccc(-c2cccc(O)c2)cc1 | > 9.02 | > 9.02 | > 9.02 | > 9.02 | > 9.02 | 2.63 | 2.71 | 2.9 | 2.13 | 1.39 | 0.69 | 2.24 | 2.81 | 2.22 | 1.81 | 1.11 | 0.86 | 2.39 | 2.3 | 2.24 | viability, T/C [16]: 2.16%; viability, T/C [17]: 1.32%; viability, T/C [18]: 0.73%; viability, T/C [19]: 2.52%; viability, T/C [20]: 2.29%; viability, T/C [21]: 2.22%; viability, T/C [22]: 2.18%; viability, T/C [23]: 1.17%; viability, T/C [24]: 0.8%; viability, T/C [25]: 2.57%; viability, T/C [26]: 2.57%; viability, T/C [27]: 3.02%; viability, T/C [28]: 2.33%; viability, T/C [29]: 1.52%; viability, T/C [30]: 1%
